Measured values taken from patent publication US8163769B2, “Antibacterial compounds” (Abbott Laboratories, priority 2002, dated 2012).

Target: bacterial protein synthesis (S30 extract from quinolone-succeptable Streptococcus pneumoniae ATCC 46919)
Assay: Translation assay, firefly luciferase reporter system with S30 Streptococcus pneumoniae extract
Assay type: biochemical
Settings: cell-free S30 Streptococcus pneumoniae extract, luciferase mRNA; read-out: IC50, concentration which caused 50% inhibition of bacterial protein synthesis
Method: Bacterial protein synthesis inhibitory activity of the compounds and the aformentioned commercially-available antibacterials was determined by translation assays performed using the firefly luciferase reporter system described by Murray et al., (2001), “Staphylococcus aureus Cell Extract Transcription-Translation Assay: Firefly Luciferase Reporter System for Evaluating Protein Translation Inhibitors,” Antimicrob. Agents Chemother. 45(6): 1900-1904, replacing the Staphylococcus aureus S30 extract described therein with S30 Streptococcus pneumoniae extract from quinolone-succeptable Streptococcus pneumoniae ATCC 46919, and replacing plasmid coding for the luciferase gene with mRNA (encoding produced by in vitro transcription from the plasmid pAS10rbs3) which encoded the luciferase gene with an upstream Streptococcus pneumoniae promoter and Shine-Dalgarno site.

For `CC(=O)NC[C@H]1CN(c2ccc(N3CCOCC3)c(F)c2)C(=O)O1` [Linezolid], which IC50 is on record?
The IC50 was ~3000 nM.
